Experimental data taken from patent US6111103A, “Diresorcinyl-alkoxy- and -aryloxy-s-triazines” (Ciba Specialty Chemicals Corporation, priority 1998, dated 2000).

Key:
[1] = UV/Vis absorption (λmax, ε); type: physicochemical; parameters: ε at λmax: unit not given beside the values
[2] = Solubility in ethanol (25° C.); type: physicochemical

SMILES	UV/Vis λmax ([1]; EtOH)	ε at λmax ([1]; EtOH)	Solubility in ethanol [2]	UV/Vis λmax ([1]; Dioxan)	ε at λmax ([1]; Dioxan)
CCCCCCCCCCCCC(CCCCCCCCCC)COc1nc(-c2ccc(O)cc2O)nc(-c2ccc(O)cc2O)n1 (stereo not drawn) [compound 101]	350 nm	34482	–	–	–
CCCCC(CC)COc1nc(-c2ccc(O)cc2O)nc(-c2ccc(O)cc2O)n1 (stereo not drawn) [compound 102]	350 nm	39177	1.50%	–	–
CCCCCCCCC(CCCCCC)COc1nc(-c2ccc(O)cc2O)nc(-c2ccc(O)cc2O)n1 (stereo not drawn) [compound 104]	351 nm	36148	–	–	–
CCCCCCCCCCCCCCCCCCOc1nc(-c2ccc(O)cc2O)nc(-c2ccc(O)cc2O)n1 [compound 105]	350 nm	31662	–	–	–
COc1nc(-c2ccc(O)cc2O)nc(-c2ccc(O)cc2O)n1 [compound 107]	350 nm	36949	0.08%	–	–
CCOc1nc(-c2ccc(O)cc2O)nc(-c2ccc(O)cc2O)n1 [compound 108]	350 nm	36761	0.17%	–	–
CCCCCCCCCCCCC(CCCCCCCCCC)COc1nc(-c2ccc(OC)cc2O)nc(-c2ccc(OC)cc2O)n1 (stereo not drawn) [compound 110]	–	–	–	347 nm	36219
CCCCCCCCC(CCCCCC)COc1nc(-c2ccc(OC)cc2O)nc(-c2ccc(OC)cc2O)n1 (stereo not drawn) [compound 111]	348 nm	34123	–	–	–
COc1ccc(-c2nc(OC)nc(-c3ccc(OC)cc3O)n2)c(O)c1 [compound 112]	–	–	–	347 nm	37680
